According to PubChem BioAssay (NCI):
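Exposure lasted 48 hours, with cells grown in 96-well plates and compounds tested at five concentrations. TGI marks complete inhibition of growth.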

Assays:
Assay in all cases: growth of human tumour cells (NCI), 48 h
IGROV1 ovarian = test system: IGROV1 ovarian
SK-MEL-5 melanoma = test system: SK-MEL-5 melanoma
786-0 renal = test system: 786-0 renal
DMS 114 small cell lung = test system: DMS 114 small cell lung
DLD-1 colon = test system: DLD-1 colon
KM20L2 colon = test system: KM20L2 colon
SNB-78 CNS = test system: SNB-78 CNS
HOP-18 NSCLC = test system: HOP-18 NSCLC
M19-MEL melanoma = test system: M19-MEL melanoma
LXFL 529 NSCLC = test system: LXFL 529 NSCLC
DMS 273 small cell lung = test system: DMS 273 small cell lung

Compound	TGI (IGROV1 ovarian) [µM]	TGI (SK-MEL-5 melanoma) [µM]	TGI (786-0 renal) [µM]	other results
O=Nc1c(O)cc(Nc2cccnc2)c2ccccc12	49.9	11.6	> 100	
O=C(N/N=C/C=C/c1ccc([N+](=O)[O-])o1)c1ccc(C(=O)N/N=C/C=C/c2ccc([N+](=O)[O-])o2)cc1	> 100	99.7	> 72.1	
COC1/C=C/C(C)C(C(C)C(OC)C(C)CCC(=O)C(C)C(CC(=O)O)OC)OC(=O)/C=C/C=C(\C)CC(OC)CC2=CC(=O)O[C@H](C2)C(C)C(OC)CC(OC)/C=C/C(C)C(OC)C1 (stereo partly specified)	0.435	> 4.35	> 4.35	
CSc1c(C#N)c(S)[nH]c(=O)c1C#N	> 100	98.9	> 100	
Clc1c2ccccc2nc2c1[nH]c1ccccc12	> 100	21.3	> 100	
S=C(N1CCN(c2ccccc2)CC1)N1CCN(c2ccccc2)CC1	> 100	> 100	> 100	
CC1C(c2ccccc2O)c2cc3c(cc2OC1N1CCOCC1)OCO3 (stereo unspecified)	> 100	62.3	> 100	
COc1ccc(C(=O)/C=C/c2ccc(OCC(=N)N)cc2)cc1	40.8	33.1	29.9	
O=C1NC(=S)NC(=O)C1=C/C=C/c1ccc([N+](=O)[O-])cc1	28.2	42.5	34.5	
COC1CC(O[C@H]2CC[C@@]3(C)[C@@H](CC[C@]4(O)[C@@H]3CC[C@]3(C)[C@@H](C(C)=O)[C@H](OC(=O)CC(C)C)[C@@H](OC(=O)c5ccccc5)[C@@]34O)C2)OC(C)C1OC1CC(OC)C(OC2OC(C)C(O)C(OC)C2O)C(C)O1 (stereo partly specified)	> 25	> 25	> 25	
CC1(C)OC(=O)C(Cc2ccccc2)(Cc2ccccc2)C(=O)O1	> 100	> 100	> 100	
COC(=O)C1=C(CCC[C@H](C)O[Si](C)(C)C(C)(C)C)NC(=O)N2[C@@H](CCO)CC[C@H]12	31.8	21	29.1	
O=C(NCCCN1CCN(CCCNC(=O)Nc2cccc3ccccc23)CC1)Nc1cccc2ccccc12	35.9	30.2	34.1	
C#CC1NC(=O)C1N(CC)CC (stereo unspecified)	> 100	> 100	> 100	
O=C1C(S(=O)(=O)c2ccccc2)=C(CS(=O)(=O)c2ccccc2)[C@@H](OCc2ccccc2)[C@@H]1OCc1ccccc1	33.8	40.2	> 100	
CCOC(=O)c1cc(C2CCN(Cc3ccccc3)C2=S)c(C(=O)C=[N+]=[N-])[nH]1 (stereo unspecified)	> 100	34.5	85.4	
COc1c2c(cc3c1C(=O)Cc1ccc4c(c1CN(C)CC3)OCO4)OCO2	> 100	> 100	> 100	TGI (DMS 114 small cell lung): > 100 µM; TGI (DLD-1 colon): > 100 µM; TGI (KM20L2 colon): > 100 µM; TGI (SNB-78 CNS): > 100 µM; TGI (HOP-18 NSCLC): > 100 µM; TGI (M19-MEL melanoma): > 100 µM
N/C(=N\S(=O)(=O)c1cc(Cl)c(Oc2ccc([N+](=O)[O-])cc2Cl)c(Cl)c1)Nc1ccc(Cl)cc1	31.4	31.3	35.1	
Nc1nc(=S)n(-c2ccc(Cl)cc2)c2nc3ccccc3cc12	> 100	> 100	> 100	

Compound	TGI (IGROV1 ovarian) [µM]	TGI (SK-MEL-5 melanoma) [µM]	TGI (786-0 renal) [µM]	other results
N#Cc1c(O)c2ccccc2[nH]c1=O	> 100	> 100	> 100	
CC1(C)C2CCC(O)(C2)C1N (stereo unspecified)	> 100	> 100	> 100	
COc1cc2c[n+](C)c3c(c2cc1OC)Cc1cc2c(cc1-3)OCO2	> 100	> 100	> 100	
COC(=O)C1(C)NCCc2c1[nH]c1ccccc21 (stereo unspecified)	> 100	> 100	> 100	TGI (LXFL 529 NSCLC): > 100 µM; TGI (DMS 114 small cell lung): > 100 µM; TGI (DLD-1 colon): > 100 µM; TGI (KM20L2 colon): > 100 µM; TGI (M19-MEL melanoma): > 100 µM
COc1ccc(/C(=N\Nc2ccccn2)c2ccccn2)cc1	7.89	11.7	24.5	
CCCCCCCCC/C=C1/CC(CO)(COC(=O)c2ccccc2)OC1=O (stereo unspecified)	29.6	19.2	29.4	
O=C1/C(=C/c2ccc(Cl)cc2)CSC/C1=C\c1ccc(Cl)cc1	3.65	10.6	9.73	
CN(C)c1ccc(/C=C/c2cc(-c3ccccc3)[n+](C)n2-c2ccccc2)cc1	3.76	0.522	23	
CNC(=O)NS(=O)(=O)c1ccc(C)cc1	> 100	> 100	> 100	
Cc1ccc(N2C(N)=C(C#N)C(C#N)(C#N)C2c2ccccc2)cc1 (stereo unspecified)	20.2	20.9	30.3	
COc1cc(C=O)cc(O)c1O	> 100		> 100	TGI (LXFL 529 NSCLC): > 100 µM; TGI (DMS 114 small cell lung): > 100 µM; TGI (DLD-1 colon): > 100 µM; TGI (KM20L2 colon): > 100 µM; TGI (SNB-78 CNS): > 100 µM; TGI (M19-MEL melanoma): > 100 µM; TGI (DMS 273 small cell lung): > 100 µM
CC1=NN(c2nc(N)nc(/C(C#N)=C\c3cccc([N+](=O)[O-])c3)n2)C(C)(C)C1	34.1	> 42.6	32	
O=[N+]([O-])c1cccc(N=Nc2c(O)ccc3ccccc23)c1	> 100	> 100	> 100	
CC1CN=C(Nc2ccc(F)c(Cl)c2)S1 (stereo unspecified)	> 100	> 100	> 100	
Cc1cccc2c1c(=O)c1c(O)cc(O)cc1n2C	> 100	> 100	> 100	
O=C1O/C(=C\c2ccc(O)cc2)C(c2ccc(O)c(Cl)c2)=C1Cl	> 100	43.2	> 100	
CCCNC(=O)N1CC(CN2CCN(c3ccccc3)CC2)O/C1=N/C(=O)Nc1ccccc1 (stereo unspecified)	> 100	94.1	> 100	
O=C(C/C=C/c1ccccc1)c1ccccc1	> 100	40.8	48.8	
COC(=O)/C(C#N)=C(\N)c1c(C)c2ccccc2oc1=N	> 100	> 100	> 100	
